Data: US7943618B2, “Btk protein kinase inhibitors” (Roche Palo Alto LLC, priority 2007, dated 2011)

How the values were obtained:
[1] = target: T1, Btk enzyme (His-tagged, full-length) (Homo sapiens, UniProt Q06187); assay: Bruton's Tyrosine Kinase (Btk) Inhibition Assay (33P filtration capture); format: biochemical; conditions: Bruton's tyrosine kinase Assay (Example 34), 100 μM ATP
T1 construct: 5-10 nM Btk enzyme (His-tagged, full-length); His
Excerpt: Bruton's Tyrosine Kinase (Btk) Inhibition Assay
The assay is a capture of radioactive ^33P phosphorylated product through filtration. The interactions of Btk, biotinylated SH2 peptide substrate (Src homology), and ATP lead to phosphorylation of the peptide substrate. Biotinylated product is bound streptavidin sepharose beads. All bound, radiolabeled products are detected by scintillation counter.
Plates assayed are 96-well polypropylene (Greiner) and 96-well 1.2 μm hydrophilic PVDF filter plates (Millipore).
IC50 determinations are calculated from 10 data points per compound utilizing data produced from a standard 96-well plate assay template. One control compound and seven unknown inhibitors were tested on each plate and each plate was run twice. […] The control compound was staurosporine. Background was counted in the absence of peptide substrate. Total activity was determined in the presence of peptide substrate. The following protocol was used to determine Btk inhibition.
1) Sample preparation: The test compounds were diluted at half-log increments in assay buffer (imidazole, glycerol-2-phosphate, EGTA, MnCl2, MgCl2, BSA).
2) Bead preparation • a.) rinse beads by centrifuging at 500 g • b.) reconstitute the beads with PBS and EDTA to produce a 20% bead slurry
3) Pre-incubate reaction mix without substrate (assay buffer, DTT, ATP, ^33P ATP) and mix with substrate (assay buffer, DTT, ATP, ^33P ATP, peptide substrate) 30° C. for 15 min.
4) To start assay, pre-incubate 10 μL Btk in enzyme buffer (imidazole, glycerol-2-phosphate, BSA) and 10 μL of test compounds for 10 min at RT.
5) Add 30 μL reaction mixture without or with substrate to Btk and compounds.
6) Incubate 50 μL total assay mix for 30 min at 30° C.
7) Transfer 40 μL of assay to 150 μL bead slurry in filter plate to stop reaction.
8) Wash filter plate after 30 min, with following steps • a. 3×250 μL NaCl • b. 3×250 μL NaCl containing 1% phosphoric acid • c. 1×250 μL H2O
9) Dry plate for 1 h at 65° C. or overnight at RT
10) Add 50 μL microscint-20 and count ^33P cpm on scintillation counter.
Calculate percent activity from raw data in cpm percent activity=(sample−bkg)/(total activity−bkg)×100
Calculate IC50 from percent activity, using one-site dose response sigmoidal model y=A+((B−A)/(1+((x/C)^D))))

Ramos cells = assay: Inhibition of B-cell Activation - B cell FLIPR assay in Ramos cells; format: cell-based; conditions: Homo sapiens, 0.5 h, intracellular calcium increase stimulated by 10 μg/mL anti-IgM, compounds incubated 30 min at RT
Excerpt: Inhibition of B-cell Activation—B cell FLIPR assay in Ramos cells
The B cell FLIPR assay is a cell based functional method of determining the effect of potential inhibitors of the intracellular calcium increase from stimulation by an anti-IgM antibody. Ramos cells (human Burkitt's lymphoma cell line. ATCC-No. CRL-1596) were cultivated in Growth Media (described below). One day prior to assay, Ramos cells were resuspended in fresh growth media (same as above) and set at a concentration of 0.5×10^6/mL in tissue culture flasks. On day of assay, cells are counted and set at a concentration of 1×10^6/mL1 in growth media supplemented with 1 μM FLUO-3AM(TefLabs Cat-No. 0116, prepared in anhydrous DMSO and 10% Pluronic acid) in a tissue culture flask, and incubated at 37° C. (4% CO2) for one h. To remove extracellular dye, cells were collected by centrifugation (5 min, 1000 rpm), resuspended in FLIPR buffer (described below) at 1×10^6 cells/mL and then dispensed into 96-well poly-D-lysine coated black/clear plates (BD Cat-No. 356692) at 1×10^5 cells per well. Test compounds were added at various concentrations ranging from 100 μM to 0.03 μM (7 concentrations, details below), and allowed to incubate with cells for 30 min at RT. Ramos cell Ca^2+ signaling was stimulated by the addition of 10 μg/mL anti-IgM (Southern Biotech, Cat-No. 2020-01) and measured on a FLIPR (Molecular Devices, captures images of 96 well plates using a CCD camera with an argon laser at 480nm excitation).
Growth Medium: RPMI 1640 medium with L-glutamine (Invitrogen, Cat-No. 61870-010), 10% Fetal Bovine Serum (FBS, Summit Biotechnology Cat-No. FP-100-05); 1 mM Sodium Pyruvate (Invitrogen Cat. No. 11360-070).
FLIPR buffer: HBSS (Invitrogen, Cat-No. 141175-079), 2 mM CaCl2 (Sigma Cat-No. C-4901), HEPES (Invitrogen, Cat-No. 15630-080), 2.5mM Probenecid (Sigma, Cat-No. P-8761), 0.1% BSA (Sigma, Cat-No. A-7906), 11 mM Glucose (Sigma, Cat-No. G-7528)
Compound dilution details:
In order to achieve the highest final assay concentration of 100 μM, 24 μL of 10 mM compound stock solution (made in DMSO) is added directly to 576 μL of FLIPR buffer. The test compounds are diluted in FLIPR Buffer (using Biomek 2000 robotic pipettor) resulting in the following dilution scheme: vehicle, 1.00×10^−4 M, 1.00×10^−5, 3.16×10^−6, 1.00×10^−6, 3.16×10^−7, 1.00×10^−7, 3.16×10^−8.
Intracellular increases in calcium were reported using a max-min statistic (subtracting the resting baseline from the peak caused by addition of the stimulatory antibody using a Molecular Devices FLIPR control and statistic exporting software. The IC50 was determined using a non-linear curve fit (GraphPad Prism software). Representative results are in Table III.

T1 sequence (Q06187 whole entry): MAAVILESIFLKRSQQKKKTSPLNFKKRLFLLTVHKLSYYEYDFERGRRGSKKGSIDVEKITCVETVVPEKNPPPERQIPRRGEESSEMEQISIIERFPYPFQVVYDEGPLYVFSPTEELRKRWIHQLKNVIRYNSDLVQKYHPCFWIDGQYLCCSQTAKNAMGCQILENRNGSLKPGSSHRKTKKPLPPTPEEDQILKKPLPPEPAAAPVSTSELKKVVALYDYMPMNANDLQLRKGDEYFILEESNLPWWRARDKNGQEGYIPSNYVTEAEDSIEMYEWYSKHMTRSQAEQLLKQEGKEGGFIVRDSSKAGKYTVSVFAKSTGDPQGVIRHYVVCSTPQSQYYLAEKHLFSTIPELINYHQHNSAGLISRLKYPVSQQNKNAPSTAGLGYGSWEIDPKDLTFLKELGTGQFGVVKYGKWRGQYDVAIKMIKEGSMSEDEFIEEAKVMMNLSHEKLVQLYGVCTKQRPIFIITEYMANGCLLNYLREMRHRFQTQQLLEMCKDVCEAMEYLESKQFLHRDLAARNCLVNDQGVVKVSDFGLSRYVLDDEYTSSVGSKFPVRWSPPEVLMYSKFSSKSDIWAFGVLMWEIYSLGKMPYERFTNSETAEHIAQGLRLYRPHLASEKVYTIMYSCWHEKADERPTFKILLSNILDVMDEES

Row | IC50 ([1]; Table II pyridinones) [µM] | IC50 (Ramos cells) [µM] | IC50 ([1]; Table I pyridazinones) [µM] | melting point [°C] | SMILES
1 | < 0.01 | 0.004 |  |  | CCNC(=O)Nc1cc(-c2cccc(NC(=O)c3ccc(C(C)(C)C)cc3)c2CO)cn(C)c1=O [II-56, 4-tert-Butyl-N-{3-[5-(3-ethyl-ureido)-1-methyl-6-oxo-1,6-dihydro-pyridin-3-yl]-2-hydroxymethyl-phenyl}-benzamide]
2 |  | 0.415 | 0.104 | 262 to 264 | COc1nccc(Nc2cc(-c3cccc(NC(=O)c4ccc(C(C)(C)C)cc4)c3C)nn(C)c2=O)n1 [Compound I-17]
3 | 0.096 | 0.552 |  | 291 to 292 | CNC(=O)Nc1cc(-c2cccc(NC(=O)c3ccc(N(C)C)cc3)c2C)cn(C)c1=O [II-13]
4 |  | 0.067 |  |  | Cc1c(NC(=O)c2ccc(C(C)(C)C)cc2)cccc1-c1cc(Nc2ccc(C(=O)N3CCOCC3)cn2)c(=O)n(C)c1 [II-2, 4-tert-Butyl-N-(2-methyl-3-{1-methyl-5-[5-(morpholine-4-carbonyl)-pyridin-2-ylamino]-6-oxo-1,6-dihydro-pyridin-3-yl}-phenyl)-benzamide]
5 |  | 0.015 |  |  | Cn1cc(-c2cccc(NC(=O)c3ccc(C(C)(C)C)cc3)c2CO)cc(Nc2ccc(C(=O)N3CCOCC3)cn2)c1=O [II-58]
6 |  |  | 0.12 | 172 to 173 | Cn1nc(-c2cccc(NC(=O)c3ccc(C(C)(C)O)cc3)c2)cc(Nc2ccc(C(=O)N3CCOCC3)cn2)c1=O [Compound I-16]
7 |  |  | 0.122 | 278 to 279 | CCNC(=O)Nc1cc(-c2cccc(NC(=O)c3ccc(C(C)(C)C)cc3)c2C)nn(C)c1=O [Compound I-27]
8 | 54.7 |  |  | 113 to 114 | CNC(=O)Nc1cc(-c2cccc(CC(=O)N3CC(CC(C)(C)O)C3)c2)cn(C)c1=O [II-47]
9 | 7.33 |  |  | 219 to 220 | Cc1c(NC(=O)c2ccc(C(C)(C)C)cc2)cccc1-c1cc(NC(=O)Nc2ccccc2)c(=O)n(C)c1 [II-8]
10 |  |  | 0.249 | 211 to 213 | Cc1c(NC(=O)c2ccc(C(C)(C)C)cc2)cccc1-c1cc(Nc2ccnc(N3CCOCC3)n2)c(=O)n(C)n1 [Compound I-14]
11 |  |  | 15.5 | 166 to 169 | Cc1c(NC(=O)N2CCN(C(C)(C)C)CC2)cccc1-c1cc(Nc2ccc(C(=O)N3CCOCC3)cn2)c(=O)n(C)n1 [Compound I-6, 4-tert-Butyl-piperazine-1-carboxylic acid (2-methyl-3-{1-methyl-5-[5-(morpholine-4-carbonyl) -pyridin-2-ylamino]-6-oxo-1,6-dihydro-pyridazin-3-yl}-phenyl)-amide]
12 |  |  | 0.354 | 193 to 195 | Cc1c(NC(=O)c2ccc(C(C)(C)C)cc2)cccc1-c1cc(Nc2ccnc(N3CCCC3)n2)c(=O)n(C)n1 [Compound I-21]
13 |  |  | 0.125 | 210 to 211 | Cc1c(NC(=O)c2ccc(C(C)(C)C)cc2)cccc1-c1cc(Nc2ccnc(N3CCC(CO)C3)n2)c(=O)n(C)n1 (stereo not shown) [Compound I-20]
14 |  |  | 6.25 | 209 to 210 | CC(C)N1CCN(C(=O)Cc2cccc(-c3cc(Nc4ccc(C(=O)N5CCOCC5)cn4)c(=O)n(C)n3)c2)CC1 [Compound I-41]
15 | 0.308 |  |  | 185 to 186 | Cc1c(NC(=O)c2ccc(C(C)(C)C)cc2)cccc1-c1cc(NC(=O)NC(C)C)c(=O)n(C)c1 [II-6]
16 | 0.04 |  |  | 254 to 255 | CNC(=O)Nc1cc(-c2cccc(NC(=O)c3cc4c(s3)CCCC4)c2C)cn(C)c1=O [II-11, 4,5,6,7-Tetrahydro-benzo[b]thiophene-2-carboxylic acid{2-methyl-3-[1-methyl-5-(3-methyl-ureido)-6-oxo-1,6-dihydro-pyridin-3-yl]-phenyl}-amide]
17 |  |  | 2.35 | 231 to 232 | Cn1nc(-c2cccc(CC(=O)N3CCC(C(C)(C)C)CC3)c2)cc(Nc2ccc(C(=O)N3CCOCC3)cn2)c1=O [Compound I-42]
18 | 0.867 |  |  | 258 to 259 | Cc1c(NC(=O)c2ccc(C(C)(C)C)cc2)cccc1-c1cc(NC(=O)NCC(F)(F)F)c(=O)n(C)c1 [II-7]
19 |  |  | < 0.01 | 148 to 150 | Cc1c(NC(=O)c2ccc(C(C)(C)C)cc2)cccc1-c1cc(Nc2ccc(C(=O)N3CCOCC3)cn2)c(=O)n(C)n1 [Compound I-1, 4-tert-Butyl-N-(2-methyl-3-{1-methyl-5-[5-(morpholine-4-carbonyl)-pyridin-2-ylamino]-1,6-oxo-dihydro-pyridazin-3-yl}-phenyl)-benzamide]
20 |  |  | 0.078 | 220 to 222 | Cc1c(NC(=O)c2ccc(C(C)(C)C)cc2)cccc1-c1cc(Nc2ccnc(N3CCN(C)CC3)n2)c(=O)n(C)n1 [Compound I-11]
21 | 0.666 |  |  | 264 to 265 | CNC(=O)Nc1cc(-c2cccc(NC(=O)N3Cc4ccccc4C3)c2C)cn(C)c1=O [II-17, 1,3-Dihydro-isoindole-2-carboxylic acid{2-methyl-3-[1-methyl-5-(3-methyl-ureido)-6-oxo-1,6-dihydro-pyridin-3-yl]-phenyl}-amide]
22 |  |  | 0.059 | 216 to 217 | COc1cc(C(C)(C)C)ccc1C(=O)Nc1cccc(-c2cc(Nc3ccc(C(=O)N4CCOCC4)cn3)c(=O)n(C)n2)c1 [Compound I-30]

Row | SMILES | IC50 ([1]; Table II pyridinones) [µM] | IC50 (Ramos cells) [µM] | IC50 ([1]; Table I pyridazinones) [µM] | melting point [°C]
23 | Cn1nc(-c2cccc(CC(=O)NCCOC(C)(C)C)c2)cc(Nc2ccc(C(=O)N3CCOCC3)cn2)c1=O [Compound I-32] |  | 0.032 | 0.82 | 220 to 221
24 | Cc1c(NC(=O)N2CC(OC(C)(C)C)C2)cccc1-c1cc(Nc2ccc(C(=O)N3CCOCC3)cn2)c(=O)n(C)n1 [Compound I-10, 3-tert-Butoxy-azetidine-1-carboxylic acid(2-methyl-3-{1-methyl-5-[5-(morpholine-4-carbonyl) -pyridin-2-ylamino]-6-oxo-1,6-dihydro-pyridazin-3-yl}-phenyl)-amide] |  |  | 0.228 | 171 to 172
